Tests used:
rat plasma proteins = assay: Western blot of plasma from rats dosed in vivo; details: intravenous, 5 minutes and 24 hours after dosing
Procedure: Fifteen Sprague-Dawley rats weighing 250-300 grams were randomized for treatment with either argatroban and argatroban derivative. Rats treated with argatroban received dosages of either 3 or 10 mg/kg (n=6 and respectively) administered intravenously. […] A control group of rats was treated with intravenous injection of DMSO (0.2 ml/kg, n=3). The study was divided into two groups. Plasma samples were obtained from group 1 rats at time periods of 5 min, 15 min, and 24 hrs after injection. Plasma samples were obtained from group 2 rats at 1 hr, 3 hr and 24 hr following injection. […] The collected plasma samples from these rats were frozen for subsequent evaluation of the extent of conjugation to plasma proteins using ELISA and western blot analysis.
Plasma samples obtained from the rats were diluted 1:50 in PBS and then further diluted 1:1 with 2× Laemmli non-reducing buffer (Novex). The samples were boiled for 5 min. after which 25 ul of each sample were loaded per well of 8% acrylamide SDS-PAGE precast gel (10 lanes/1 mm gel, Novex). Samples were run in replicates for staining with Coomassie blue and for transfer to nitrocellulose.
Gels were run at a constant voltage of 120 V until the dye fronts reached the bottom of gels. […]

red blood cells = assay: Flow cytometry of red blood cells derivatized in vitro with argatroban derivatives; assay type: cell-based, human, rabbit, rat; details: RBCs from whole blood incubated with 100 μM derivative, each sample
Procedure: (§1) Whole blood samples were treated with argatroban derivatives to yield plasma proteins and red blood cells derivatized with argatroban. Fresh citrated human, rabbit (New Zealand) and rat (Sprague Dawley) whole blood samples were incubated with 100 μM (final concentration) Argatroban-C6-NHS, Argatroban-C16-Maleimide or DMSO, for 30 minutes at room temperature under gentle agitation. After quenching the reaction with 1 mM lysine or cysteine, the whole blood was centrifuged 10 min at 2500 rpm. Labelled plasma were recovered and stored at −20° C. until use. Labelled red blood cells (RBCs) were washed three times in PBS (5 min at 2500 rpm).
After the last centrifugation, a 10% suspension of labelled red blood cells (RBCS) was made in PBS. Five μl of the suspension was mixed with rabbit anti-argatroban polyclonal sera from Example 4 diluted 1/500 in PBS-1% BSA and incubated at room temperature for 1 hour. After three washes in PBS, the RBCs were incubated with 50 μl of FITC-labeled goat anti-rabbit Ig (BioAtlantic, Nantes) diluted 1/50 in PBS-1% BSA for 1 hour in the dark. After three washes, the RBCs were resuspended in 0.5 ml PBS and fluorescence was detected by flow cytofluorometer (Becton Dickinson).

plasma proteins = assay: Western blot of plasma proteins derivatized in vitro with argatroban derivatives; details: human and rat whole blood, 100 μM, 30 minutes; bands from less than 39.5 kDa to greater than 193 kDa
Procedure: as §1
Labeled plasma were diluted 1/10 in water. Five μl of diluted plasma (·30 μg protein) were mixed with electrophoresis buffer and separated by SDS-PAGE using an 8% polyacrylamide gel, under non-reducing conditions. Plasma proteins were then transferred onto nitrocellulose sheet with a semi-dry transfer apparatus. Efficacy of transfer was checked by reversible staining with 1% Ponceau Red. The blot was saturated with tris-buffered saline (TBS) containing 5% gelatin and 0.1% Tween 20, for 2H at 37° C. to minimize non-specific binding. After three washes with TBS-1 % Tween 20 (TBS-T), the blot was incubated with rabbit anti-argatroban polyclonal serum from diluted 1/20,000 in TBS containing 1% gelatin and 0.1% Tween 20 (TBS-GT), for 1H30 at RT. […]

Row | Structure (SMILES) | plasma protein labelling / association with anti-argatroban antisera (rat plasma proteins) | mean fluorescence signal relative to argatroban-maleimide derivatized cells (red blood cells) [times] | protein bands identified in derivatized plasma samples (plasma proteins)
1 | CC1CNc2c(cccc2S(=O)(=O)N[C@@H](CCCNC(=N)N)C(=O)N2CC[C@@H](C)C[C@@H]2C(=O)O)C1 (stereo partly drawn) [argatroban] | minimal protein association |  | 
2 | CC1CNc2c(cccc2S(=O)(=O)N[C@@H](CCCN=C(N)N)C(=O)N2CC[C@@H](C)C[C@@H]2C(=O)NCCCCCC(=O)ON2C(=O)CCC2=O)C1.Cl.Cl (stereo partly drawn) [argatroban-NHS] |  | 3 to 7 | Numerous protein bands

Source: patent US6440417B1, “Antibodies to argatroban derivatives and their use in therapeutic and diagnostic treatments” (ConjuChem, Inc., priority 1998, dated 2002)
